{
  "source": "paper PMC2976052",
  "about": "(The Journal of steroid biochemistry and molecular biology, 2010)",
  "key": {"GFP-GRER chimera [1]": {"molecular_target": "T1, GFP-GRER chimera (Homo sapiens, UniProt P03372)", "T1 sequence (P03372 302-595, change not shown)": "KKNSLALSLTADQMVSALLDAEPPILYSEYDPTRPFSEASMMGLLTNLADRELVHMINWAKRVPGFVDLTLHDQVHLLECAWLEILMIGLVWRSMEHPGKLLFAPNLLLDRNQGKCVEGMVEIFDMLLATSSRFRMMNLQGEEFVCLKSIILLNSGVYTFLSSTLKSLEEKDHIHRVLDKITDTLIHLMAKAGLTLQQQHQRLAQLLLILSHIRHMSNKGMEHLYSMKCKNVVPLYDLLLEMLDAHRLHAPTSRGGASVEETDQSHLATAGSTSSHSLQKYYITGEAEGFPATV", "assay": "cell-based"}, "GFP-GRER chimera [2]": {"molecular_target": "T1, GFP-GRER chimera", "conditions": "ER agonist treatment ref 17; cited from earlier work"}, "GFP-GRER chimera [3]": {"molecular_target": "T1, GFP-GRER chimera"}, "parental C127 cell line": {"test_system": "parental C127 cell line", "format": "cell-based, murine", "conditions": "for nuclear translocation: parental cell line; for nuclear fluorescence in parental cell line: hits retested in parental cell line"}, "6020 cells": {"test_system": "6020 cells", "assay": "Cytotoxicity measurements by image analysis"}, "[4]": {"conditions": "estradiol dose response, five 384-well plates"}, "[5]": {"conditions": "staurosporine dose-response, 4 hours, 96-well"}},
  "note": "pEC50: −log10 of the molar value. Like-named read-outs stand apart in the source and are kept apart here.",
  "data": [
    {"compound": "CCCc1c(-c2ccc(O)cc2)nn(-c2ccc(O)cc2)c1-c1ccc(O)cc1", "note": "[PPT, propyl pyrazoletriol]", "values": [
      {"measurement": "pEC50", "setting": "GFP-GRER chimera [1]", "value": 6.85},
      {"measurement": "effect on transcription, ERE-driven gene reporter", "setting": "GFP-GRER chimera [2]", "value": "induced transcription"}
    ]},
    {"compound": "COc1cccc2c1C(=O)c1c(O)c3c(c(O)c1C2=O)C[C@@](O)(C(=O)CO)C[C@@H]3O[C@H]1C[C@H](N)[C@H](O)[C@H](C)O1", "note": "[adriamycin]", "values": [
      {"measurement": "nuclear translocation", "setting": "GFP-GRER chimera [3]; 6020 (assay) cell line, hit retest in quadruplicate", "value": 97, "unit": "%"},
      {"measurement": "nuclear translocation", "setting": "parental C127 cell line; hit retest in quadruplicate", "value": 95, "unit": "%"}
    ]},
    {"compound": "C[C@]12CC[C@@H]3c4ccc(O)cc4CC[C@H]3[C@@H]1CC[C@@H]2O", "note": "[estradiol, 17-β estradiol]", "values": [
      {"measurement": "cytoplasmic area", "setting": "6020 cells; [4]", "value": "does not decrease"},
      {"measurement": "nuclear area", "setting": "6020 cells; [4]", "value": "remains unchanged"},
      {"measurement": "nuclear fluorescence in parental cell line", "setting": "parental C127 cell line", "value": "did not show nuclear fluorescence"},
      {"measurement": "nuclear translocation", "setting": "parental C127 cell line; 5 μM estradiol control", "value": 0, "unit": "%"}
    ]},
    {"compound": "C[C@]12CC[C@@H]3c4ccc(O)cc4CC[C@H]3[C@@H]1CCC2=O", "note": "[estrone]", "values": [
      {"measurement": "nuclear fluorescence in parental cell line", "setting": "parental C127 cell line", "value": "did not show nuclear fluorescence"}
    ]},
    {"compound": "O=C(c1ccc(OCCN2CCCCC2)cc1)c1c(-c2ccc(O)cc2)sc2cc(O)ccc12", "note": "[raloxifene]", "values": [
      {"measurement": "nuclear translocation", "setting": "parental C127 cell line; hit retest in quadruplicate", "value": 0, "unit": "%"}
    ]},
    {"compound": "CN[C@@H]1C[C@H]2O[C@@](C)([C@@H]1OC)n1c3ccccc3c3c4c(c5c6ccccc6n2c5c31)C(=O)NC4", "note": "[staurosporine]", "values": [
      {"measurement": "cytoplasmic area", "setting": "6020 cells; [5]", "value": "dose-dependent decrease in cytoplasmic area"},
      {"measurement": "nuclear area", "setting": "6020 cells; [5]", "value": "dose-dependent decrease in nuclear area"},
      {"measurement": "ROIs (cell number)", "setting": "6020 cells; staurosporine dose-response, data not shown", "value": "decrease in cell number with increasing staurosporine concentration"},
      {"measurement": "nuclear translocation result of cytotoxic compound", "setting": "GFP-GRER chimera [3]; staurosporine dose-response for 4 hours, 96-well", "value": "false positive nuclear translocation results"}
    ]}
  ]
}
